Reference: US8420621B2, “Methods of using gamma cyclodextrin to control blood glucose and insulin secretion” (Abbott Laboratories, priority 2004, dated 2013)

Tested on: healthy adult subjects
Experiment: Clinical study: postprandial plasma glucose response
Format: in vivo, human
Source text: Thirty-two healthy adult subjects received two treatments in a double-masked, randomized, crossover design. The two treatments consisted of 50 g challenges of either maltodextrin or gamma-cyclodextrin. Blood samples were collected over a three-hour period, and breath samples collected over an eight-hour period following consumption of each carbohydrate. […] This study utilized a randomized, double-masked, crossover design, with a 4-14 day washout period between treatments. Before completing the two treatment visits, each subject completed one pre-study gastrointestinal tolerance test visit. Randomization was carried out by sealed envelopes stating which pre-study treatment was to be received, as well as in which sequence the two treatment visits were to be carried out. These envelopes were prepared from randomization schedules generated at Ross Products Division of Abbott Laboratories, Two product coordinators assigned an envelope from the top of the pile to each subject in the order that they passed all screening criteria and were given subject numbers. Besides carrying out randomization, the product coordinators were responsible for study product inventory and serving the appropriate product to subjects at each visit so that other study staff could not become aware of the study product identity. […] At each of the two treatment visits, subjects received 16 fl oz of a study product containing either 50 g of maltodextrin or 50 g of gamma-cyclodextrin. All beverages were served cold in styrofoam cups with lids and straws, labeled only with the subject number, subject initials and visit number, with the intention of hiding any slight differences in appearance that could be visible to study staff or subjects. On two separate treatment visits, subjects received, in random order, one of the two study beverages. Three days prior to each treatment visit, subjects recorded their food and beverage intake in a food diary. Subjects were required to consume ≧150 g of carbohydrate each day for three days prior to each treatment. Subjects were not to engage in vigorous exercise for 24 hours before each treatment. Subjects consumed an evening low residue Ensure® meal and completed a 10-16 hour overnight fast as detailed previously. […] A breath sample was collected for measurement of breath hydrogen. […] Plasma glucose was measured using an AccuChek Advantage Blood Glucose Monitoring System® (Roche Diagnostics, Indianapolis, Ind.). […] Positive incremental area under the plasma glucose response curve for two hours after each treatment will be calculated using the method of Wolever et al, The glycemic index: methodology and clinical implications, Amer. […]

For `OC[C@H]1O[C@@H]2O[C@H]3[C@H](O)[C@@H](O)[C@@H](O[C@H]4[C@H](O)[C@@H](O)[C@@H](O[C@H]5[C@H](O)[C@@H](O)[C@@H](O[C@H]6[C@H](O)[C@@H](O)[C@@H](O[C@H]7[C@H](O)[C@@H](O)[C@@H](O[C@H]8[C@H](O)[C@@H](O)[C@@H](O[C@H]9[C@H](O)[C@@H](O)[C@@H](O[C@H]1[C@H](O)[C@H]2O)O[C@@H]9CO)O[C@@H]8CO)O[C@@H]7CO)O[C@@H]6CO)O[C@@H]5CO)O[C@@H]4CO)O[C@@H]3CO` [Gamma-Cyclodextrin, Gamma-cyclodextrin], which “Plasma glucose area under the curve (AUC), effect versus maltodextrin” value (50 g oral challenge) is on record?
The value was “significantly reduced”.

What about the “Adjusted peak glucose, difference between treatments” value (50 g oral, crossover analysis p<0.0001) of the same compound?
The value was “significant difference”.

What about the “Positive incremental 120 min plasma glucose AUC” value (50 g oral, mean±SEM, n=31) of the same compound?
The value was 133.2±16.5.

What about the “Relative glycemic response compared with maltodextrin” value (baseline to 120 min, 50 g oral) of the same compound?
Its value is 55%.
